# Data as given in patent publication US9078868B2, “Therapeutic agent for accelerating recovery of animal under medical treatment” (UNIVERSITY OF MIYAZAKI, priority 2010, dated 2015).
# No end group written: not given here. *: point of attachment. Octanoyl = CCCCCCCC(=O)*
# What was measured:
# [1] = test system: animals which did not ingest food after administration of ghrelin; experiment: Example 4: improvement in animals which did not ingest food after administration of ghrelin; format: in vivo, canines and felines
# Excerpt: Diseases: Rib fracture, chronic renal failure, falling accident, infectious respiratory syndrome, hemobartonellosis, FIV, FELV infection, CPV infection, habu bite, diarrhea, vomiting, mammary gland tumor, traffic accident, fracture surgery, urinary retention, renal failure, urethroplasty, urinary retention, forelimb trauma Number of animals: 15 Activity improved: 11/13 (2, not evaluated; 2 unchanged) GPT value improved: 3/3 GOT value improved: 2/2 BUN value improved: 2/2 CRE value improved: 2/2 CPK value improved: 1/1 ALP value improved: 1/1 WBC value improved: 1/1 (decreased) PLT value improved: 2/2 Body temperature decreased: 2/2
# [2] = test system: animals under medical treatment with physical conditions worsened by various diseases; experiment: Example 2: single dose of ghrelin in animals under medical treatment for pathological conditions other than a surgery; format: in vivo, canines and felines; details: for Activity (vigor): animals improved/animals evaluated / Activity (vigor): response rate / Biochemical tests: animals improved/animals evaluated / Biochemical tests: response rate / Hematology tests: animals improved/animals evaluated / Hematology tests: response rate / Body temperature: animals improved/animals evaluated / Body temperature: response rate: single dose
# Protocol: In these Examples, a canine-derived ghrelin (a peptide compound in which a side chain hydroxyl group of the serine residue at the 3rd position from the amino terminus is acylated with an n-octanoyl group in SEQ ID NO: 1) was used as ghrelin. The canine-derived ghrelin was chemically synthesized and then lyophilized, and a canine-derived ghrelin for administration containing 0.1, 0.3, 0.5, or 1 mg per vial of a canine-derived ghrelin was prepared.
# To administer ghrelin to animals, the canine-derived ghrelin was dissolved to a concentration of 1 mg/2 mL in physiological saline and intravenously, subcutaneously, or intramuscularly injected after the dose was adjusted depending on the body weight.
# Animals hospitalized in veterinary hospitals, particularly canines and felines, were used for treatment. These animals may or may not have undergone a surgery for treatment. The surgeries performed on the animals were pyometra surgery, surgical removal of a reproductive organ, surgical removal of mammary gland tumor, ovary cyst surgery, liver cell tumor surgery, disc hernia surgery, diaphragmatic hernia surgery, fracture surgery, gastrointestinal tract surgery, and urethroplasty.
# Physical conditions in animals with various pathological conditions were examined by measuring parameters including activity (vigor), blood cell test values, biochemical test values, urinalysis, electrolyte tests, body weight, body temperature, the degree of anger or anxiety, respiratory rate, and the like to evaluate the effect of improving physical conditions in the animals. The effect was evaluated by comparing various evaluation parameters before and after administration.
# The evaluation parameters used were activity (vigor), body temperature, hematology parameters (blood cell test values), serum biochemistry parameters (biochemical test values), the degree of anger or anxiety, and respiratory rate. […] The degree of anger or anxiety of an animal observed visually by an observer were also evaluated using the following criteria: 1. calm and accustomed to a health care professional, 2. able to be touched by but unaccustomed to a health care professional and restless, 3. wandering around or hiding in the kennel with anxiety, 4. able to be barely touched, and 5. too violent to be touched by a health care professional and tends to bite.
# Ten animals had two or more diseases concurrently. The diseases including concurrent diseases were as follows: lower urological syndrome, urinary retention, infectious respiratory syndrome, chronic renal failure, osteoarthritis, chronic hepatitis, cystolithiasis, malnutrition, debility, jaundice, circulatory insufficiency, multiple organ failure, pulmonary edema, anemia, tabefaction, diarrhea, vomiting, wheezing, pyrexia, FIV, FELV infection, CPV infection, FVR, a liver disease, filariasis, hemobartonellosis, babesiosis, habu bite, anaphylaxis, a falling accident, rib fracture, and burn.
# Of the animals with these diseases, the evaluation parameters recorded in medical records were as follows: activity (vigor) in 16 animals, biochemistry parameters (biochemical test values) in 11 animals, hematology parameters (blood cell test values) in three animals, and body temperature in one animal.
# [3] = animals which did not ingest food
# [4] = multiple organ failure, 1 animal
# [5] = total, 18 animals with various diseases
substance,measurement,setting,value
"GSS (n-octanoyl) FLSPEHQKLQQRKESKKPPAKLQPR (GSS(Octanoyl)FLSPEHQKLQQRKESKKPPAKLQPR; listed as Canis familiaris) [ghrelin, chemically synthesized, lyophilized]",Activity improved: animals improved/animals evaluated,"[1]; 15 animals which did not ingest food, 2 not evaluated, 2 unchanged",11/13
same,ALP value improved: animals improved/animals evaluated,[1]; [3],1/1
same,BUN value improved: animals improved/animals evaluated,[1]; [3],2/2
same,Body temperature decreased: animals improved/animals evaluated,[1]; [3],2/2
same,CPK value improved: animals improved/animals evaluated,[1]; [3],1/1
same,CRE value improved: animals improved/animals evaluated,[1]; [3],2/2
same,GOT value improved: animals improved/animals evaluated,[1]; [3],2/2
same,GPT value improved: animals improved/animals evaluated,[1]; [3],3/3
same,PLT value improved: animals improved/animals evaluated,[1]; [3],2/2
same,WBC value improved (decreased): animals improved/animals evaluated,[1]; [3],1/1
same,Activity (vigor): animals improved/animals evaluated,"[2]; accident etc., 3 animals",3/3
same,Activity (vigor): response rate,"[2]; accident etc., 3 animals",100%
same,Biochemical tests: animals improved/animals evaluated,"[2]; accident etc., 3 animals",1/1
same,Biochemical tests: response rate,"[2]; accident etc., 3 animals",100%
same,Activity (vigor): animals improved/animals evaluated,"[2]; anaphylaxis, 1 animal",1/1
same,Activity (vigor): response rate,"[2]; anaphylaxis, 1 animal",100%
same,Biochemical tests: animals improved/animals evaluated,"[2]; anaphylaxis, 1 animal",1/1
same,Biochemical tests: response rate,"[2]; anaphylaxis, 1 animal",100%
same,Serum potassium (K) value after administration,[2]; animals in the Examples with decreased serum potassium after persistent poor physical conditions,improved
same,T-bil after administration,[2]; before administration 18.8 mg/dL,4.9 mg/dL
same,Activity (vigor): animals improved/animals evaluated,"[2]; debility, 1 animal",1/1
same,Activity (vigor): response rate,"[2]; debility, 1 animal",100%
same,Biochemical tests: animals improved/animals evaluated,"[2]; debility, 1 animal",1/1
same,Biochemical tests: response rate,"[2]; debility, 1 animal",100%
same,NH3 after administration,"[2]; example, before administration 207 μg/dL",302 µg/dL
same,Cre after administration,"[2]; example, before administration 3.2 mg/dL",1.3 mg/dL
same,BUN after administration,"[2]; example, before administration 72.5 mg/dL",15.4 mg/dL
same,Body temperature after administration,"[2]; example, before administration 40.2° C.",37.8 °C
same,White blood cell count after administration,"[2]; example, before administration 278×10^2/μL",16700 µL⁻¹
same,ALP after administration,"[2]; example, before administration 643 IU/L",291 IU/L
same,GPT after administration,"[2]; example, before administration 670 IU/L",260 IU/L
same,CPK after administration,"[2]; example, before administration 1166 IU/L",64 IU/L
same,GOT after administration,"[2]; example, before administration >1000 IU/L",187 IU/L
same,Activity (vigor) score after administration,"[2]; example, before administration a score of 1 (unable to move), scale 1-7",3
same,Activity (vigor): animals improved/animals evaluated,"[2]; infection, 8 animals",6/6
same,Activity (vigor): response rate,"[2]; infection, 8 animals",100%
same,Biochemical tests: animals improved/animals evaluated,"[2]; infection, 8 animals",6/6
same,Biochemical tests: response rate,"[2]; infection, 8 animals",100%
same,Hematology tests: animals improved/animals evaluated,"[2]; infection, 8 animals",1/1
same,Hematology tests: response rate,"[2]; infection, 8 animals",100%
same,Activity (vigor): animals improved/animals evaluated,"[2]; liver disease, 1 animal",1/1
same,Activity (vigor): response rate,"[2]; liver disease, 1 animal",100%
same,Body temperature: animals improved/animals evaluated,"[2]; liver disease, 1 animal",1/1
same,Body temperature: response rate,"[2]; liver disease, 1 animal",100%
same,Activity (vigor): animals improved/animals evaluated,[2]; [4],1/1
same,Activity (vigor): response rate,[2]; [4],100%
same,Activity (vigor): animals improved/animals evaluated,"[2]; renal dysfunction, 3 animals",3/3
same,Activity (vigor): response rate,"[2]; renal dysfunction, 3 animals",100%
same,Biochemical tests: animals improved/animals evaluated,"[2]; renal dysfunction, 3 animals",1/1
same,Biochemical tests: response rate,"[2]; renal dysfunction, 3 animals",100%
same,Hematology tests: animals improved/animals evaluated,"[2]; renal dysfunction, 3 animals",2/2
same,Hematology tests: response rate,"[2]; renal dysfunction, 3 animals",100%
same,Activity (vigor): animals improved/animals evaluated,[2]; [5],16/16
same,Activity (vigor): response rate,[2]; [5],100%
same,Biochemical tests: animals improved/animals evaluated,[2]; [5],11/11
same,Biochemical tests: response rate,[2]; [5],100%
same,Body temperature: animals improved/animals evaluated,[2]; [5],1/1
same,Body temperature: response rate,[2]; [5],100%
same,Hematology tests: animals improved/animals evaluated,[2]; [5],3/3
same,Hematology tests: response rate,[2]; [5],100%
